From patent US7678917B2, “Factor Xa inhibitors” (Hoffman-La Roche Inc., priority 2005, dated 2010)

target: T1, human factor Xa (Homo sapiens, UniProt P00742); test: chromogenic peptide substrate assay, inhibition of factor Xa; assay type: biochemical; conditions: human factor Xa 3 nM, chromogenic substrate S-2222, pH 7.8, room temperature; apparent Ki from IC50 by Cheng-Prusoff
T1 construct: purchased Enzyme Research Laboratories
Method: Factor Xa activity was measured spectrophotometrically in microtiter plates in a final volume of 150 μl using the following conditions: Inhibition of human factor Xa (Enzyme Research Laboratories) was tested at an enzyme concentration of 3 nM using the chromogenic substrate S-2222 (Chromogenix AB, Mölndal, Sweden) at […]. The reaction kinetics of the enzyme and the substrate were linear with both time and the enzyme concentration. The inhibitors were dissolved in DMSO and tested at various concentrations up to 100 μM. The inhibitors were diluted using HNPT buffer consisting of HEPES 100 mM, NaCl 140 mM, PEG 6000 0.1% and Tween 80 0.02%, pH 7.8. The cleavage of S-2222 by human factor Xa was followed at 405 nm for 5 minutes at room temperature. The velocity of the reaction was determined by the autoreader from the slope of the linear regression fit to 7 time points (1 minute). The initial velocity for each inhibitor concentration was determined by the slope of at least 4 time points in the linear phase by a linear regression fit […]. Apparent dissociation constants Ki were calculated according to Cheng and Prusoff [Cheng, Y. C.; Prusoff, W. H. Relationship between the inhibition constant (Ki) and the concentration of the inhibitor that causes 50 percent inhibition (IC50) of an enzyme reaction. Biochem. Pharmacol. 1973, 22, 3099-3108.] based on the IC50 and the respective Km, determined previously (Ki=IC50/(1+S/Km)). […] [Lottenberg R, Hall J A, Blinder M, Binder E P, Jackson C M., The action of thrombin on peptide p-nitroanilide substrates. Substrate selectivity and examination of hydrolysis under different reaction conditions. Biochim Biophys Acta. 1983 Feb. 15; 742(3):539-57]. According to Eadie [Eadie G. S. The inhibition of cholinesterase by physostigmine and prostigmine. J. Biol. Chem. 1942, 146, 85-93.], the Km for S-2222 amounted to 613 μM.

T1 sequence (P00742 235-488 limits assumed): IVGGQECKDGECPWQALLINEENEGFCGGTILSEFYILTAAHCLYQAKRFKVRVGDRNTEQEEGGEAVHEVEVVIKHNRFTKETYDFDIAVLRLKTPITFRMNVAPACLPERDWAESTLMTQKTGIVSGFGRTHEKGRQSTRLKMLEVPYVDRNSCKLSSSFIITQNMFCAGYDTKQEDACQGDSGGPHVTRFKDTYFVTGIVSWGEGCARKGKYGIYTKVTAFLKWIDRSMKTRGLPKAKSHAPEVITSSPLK
T1 sequence (P00742 41-179 partner limits assumed): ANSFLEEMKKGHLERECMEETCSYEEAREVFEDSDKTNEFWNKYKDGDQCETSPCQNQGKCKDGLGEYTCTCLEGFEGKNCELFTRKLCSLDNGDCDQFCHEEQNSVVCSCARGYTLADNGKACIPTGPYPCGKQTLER

SMILES | Ki [µM]
O=C(NC[C@H]1C[C@H](C(=O)Nc2ccc(-n3ccccc3=O)cc2F)C[C@@H]1O)c1ccc(Cl)s1 (racemic) [Example 15C] | 0.03
O=C(N[C@H]1C[C@@H](C(=O)Nc2ccc(-n3ccccc3=O)cc2F)C[C@@H]1O)c1ccc(Cl)s1 [Example 1C, 5-chloro-thiophene-2-carboxylic acid {(1S,2S,4R)-4-[2-fluoro-4-(2-oxo-2H-pyridin-1-yl)-phenylcarbamoyl]-2-hydroxy-cyclopentyl}-amide] | 0.015
O=C(N[C@H]1C[C@@H](C(=O)Nc2ccc(-n3ccncc3=O)cc2F)C[C@@H]1O)c1ccc(Cl)s1 [Example 5, 5-chloro-thiophene-2-carboxylic acid {(1S,2S,4R)-4-[2-fluoro-4-(2-oxo-2H-pyrazin-1-yl)-phenylcarbamoyl]-2-hydroxy-cyclopentyl}-amide] | 0.018
CCO[C@H]1C[C@H](C(=O)Nc2ccc(-n3ccccc3=O)cc2F)C[C@@H]1NC(=O)c1ccc(Cl)s1 [Example 13B, 5-chloro-thiophene-2-carboxylic acid {(1S,2S,4R)-2-ethoxy-4-[2-fluoro-4-(2-oxo-2H-pyridin-1-yl)-phenylcarbamoyl]-cyclopentyl}-amide] | 0.006
